In paper PMC9019904, “AD Informer Set: Chemical tools to facilitate Alzheimer's disease drug discovery” (Alzheimer's & Dementia : Translational Research & Clinical …, 2022):

Experiments:
[1] = tested on: BV2 (mouse microglia) cell line; assay: pHrodo-myelin phagocytosis/cell viability high content imaging assay: viability (cell count, nuclear area, nuclear intensity); conditions: 48 hours treatment
In short: (§1)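 BV2 mouse and HMC3 human microglia were treated with compounds at 10 μM for 48 h, with pHrodo-myelin present for the last 20 h. Viability was imaged as total cell count per well and mean nuclear intensity per cell. Values are means of duplicates, normalized to untreated wells as % control.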

[2] = tested on: HMC3 (human microglia) cell line; assay: as above; conditions: 48 hours treatment
In short: as §1

[3] = tested on: BV2 (mouse microglia) cell line; assay: pHrodo-myelin phagocytosis/cell viability high content imaging assay: phagocytosis signal; type: cell-based
In short: (§2)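 Mouse BV2 and human HMC3 microglia given pHrodo-myelin; phagocytosis and cell viability imaged together by high content imaging about 22 hours after myelin addition. Three measurements extracted, including intensity increase and decrease marking early and later apoptosis.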

[4] = tested on: HMC3 (human microglia) cell line; assay: as above; type: cell-based
In short: as §2

[5] = BV2, compound 10 uM, pHrodo-myelin
[6] = HMC3, compound 10 uM, pHrodo-myelin
[7] = BV2 cells, 10 uM compound, 48 hours treatment, pHrodo-myelin final 20 hours
[8] = HMC3 cells, 10 uM compound, 48 hours treatment, pHrodo-myelin final 20 hours

| Compound | 1. Cell count (% control) ([1]; BV2, compound 10 uM) | 2. Nuclear Area (% Control) ([1]; BV2, compound 10 uM) | 3. Nuclear DNA Intensity (% control) ([1]; BV2, compound 10 uM) | 1. Cell count (% control) ([2]; HMC3, compound 10 uM) | 2. Nuclear Area (% Control) ([2]; HMC3, compound 10 uM) | 3. Nuclear DNA Intensity (% control) ([2]; HMC3, compound 10 uM) | 4. Phagocytosis (% control) [3, 5] [% control] | 4. Phagocytosis (% control) [4, 6] [% control] | 1. Cell count (% control) ([1]; BV2 cells, 10 uM compound) | 2. Nuclear Area (% Control) ([1]; BV2 cells, 10 uM compound) | 3. Nuclear DNA Intensity (% control) ([1]; BV2 cells, 10 uM compound) | 1. Cell count (% control) ([2]; HMC3 cells, 10 uM compound) | 2. Nuclear Area (% Control) ([2]; HMC3 cells, 10 uM compound) | 3. Nuclear DNA Intensity (% control) ([2]; HMC3 cells, 10 uM compound) | 4. Phagocytosis (% control) [3, 7] [% control] | 4. Phagocytosis (% control) [4, 8] [% control] |
| --- | --- | --- | --- | --- | --- | --- | --- | --- | --- | --- | --- | --- | --- | --- | --- | --- |
| Cc1cc(O)cc2c1[C@]1(C)CCC3C(C)(C)CCC[C@]3(C)[C@H]1C2 (some centres unmarked) [UNC10302703A] | 88.9 | 108.7 | 100.3 | 107.3 | 104.4 | 94.7 | 179.0 | 74.6 |  |  |  |  |  |  |  |  |
| Nc1ncnc2c1nc(Sc1ccc(Cl)cc1)n2[C@@H]1O[C@@H]2COP(=O)([O-])O[C@H]2[C@H]1O.[Na+] [UNC10302890A] |  |  |  |  |  |  |  |  | 107.7 | 106.8 | 98.4 | 115.9 | 99.4 | 99.1 | 104.7 | 84.6 |
| O=c1ncn2nc(Sc3ccc(F)cc3F)ccc2c1-c1c(Cl)cccc1Cl [UNC10303093A] |  |  |  |  |  |  |  |  | 114.5 | 100.4 | 110.5 | 125.9 | 98.4 | 98.8 | 151.8 | 71.1 |
| CN1c2ccc([N+](=O)[O-])cc2N=C(c2ccc(C(=O)O)cc2)c2cc3c(cc21)C(C)(C)CCC3(C)C [UNC10303107A] |  |  |  |  |  |  |  |  | 16.8 | 151.2 | 64.7 | 75.4 | 99.6 | 105.3 | 117.4 | 76.2 |
| CN(CCOc1ccc(CC2SC(=O)NC2=O)cc1)c1ccccn1 (centres unmarked) [UNC10121399D] |  |  |  |  |  |  |  |  | 82.8 | 102.9 | 100.2 | 93.9 | 101.5 | 97.8 | 142.2 | 81.9 |
| COCCOCCOC(=O)N[C@@H](CC(C)C)C(=O)N[C@@H](Cc1ccccc1)C(=O)C(=O)NC1CC1 [UNC10302677A] |  |  |  |  |  |  |  |  | 132.7 | 105.3 | 103.4 | 142.6 | 102.2 | 91.6 | 132.9 | 70.4 |
| CCc1ccc(CCOc2ccc(CC3SC(=O)NC3=O)cc2)nc1.Cl (centres unmarked) [UNC10240376D] |  |  |  |  |  |  |  |  | 113.0 | 109.1 | 109.5 | 140.5 | 99.5 | 91.5 | 139.3 | 81.1 |
| CO[C@H]1C[C@@H]2CC[C@@H](C)[C@@](O)(O2)C(=O)C(=O)N2CCCC[C@H]2C(=O)O[C@H]([C@H](C)C[C@@H]2CC[C@@H](O)[C@H](OC)C2)CC(=O)[C@H](C)/C=C(\C)[C@@H](O)[C@@H](OC)C(=O)[C@H](C)C[C@H](C)/C=C/C=C/C=C/1C [UNC10302852A] |  |  |  |  |  |  |  |  | 54.7 | 106.2 | 98.8 | 103.0 | 85.8 | 119.9 | 309.6 | 64.8 |
| COc1cc(C(=O)NS(=O)(=O)c2ccccc2C)ccc1Cc1cn(C)c2ccc(NC(=O)OC3CCCC3)cc12 [UNC10121228A] |  |  |  |  |  |  |  |  | 90.6 | 103.2 | 103.9 | 110.1 | 100.7 | 103.6 | 129.0 | 87.2 |
| CC(C)CCN1c2nc(Nc3cc(F)c(O)c(F)c3)ncc2N(C)C(=O)C1C (centres unmarked) [UNC10302870A] | 15.1 | 106.7 | 111.0 | 49.2 | 127.1 | 123.8 | 123.8 | 178.1 |  |  |  |  |  |  |  |  |
| NC(=O)[C@@H]1CC[C@H](c2ccc(OCc3ccccc3F)cc2)N1 [UNC10303186A] | 138.2 | 103.3 | 100.1 | 128.0 | 102.6 | 95.0 | 194.5 | 105.3 |  |  |  |  |  |  |  |  |
| Cc1cc(NC(=O)Nc2ccc(F)c(F)c2)n(-c2ccccc2)n1 [UNC10302846A] |  |  |  |  |  |  |  |  | 131.4 | 104.7 | 107.1 | 127.2 | 103.4 | 94.5 | 158.9 | 71.8 |
| CCOC(=O)N1c2ccc(C(F)(F)F)cc2[C@@H](N(Cc2cc(C(F)(F)F)cc(C(F)(F)F)c2)C(=O)OC)C[C@H]1CC [UNC10302851A] |  |  |  |  |  |  |  |  | 124.9 | 104.2 | 100.1 | 125.3 | 99.8 | 94.2 | 135.7 | 85.4 |
| O=S(=O)(c1ccc2c(c1)C(=NO)c1cc(S(=O)(=O)N3CCCCC3)ccc1-2)N1CCCCC1 [UNC10302976A] |  |  |  |  |  |  |  |  | 11.0 | 116.9 | 256.7 | 69.8 | 63.2 | 194.1 | 51.8 | 12.0 |
| c1ccc(-c2nn3c(c2-c2ccnc4cc(OCCN5CCOCC5)ccc24)CCC3)nc1 [UNC10302849A] |  |  |  |  |  |  |  |  | 150.2 | 109.6 | 98.8 | 117.4 | 115.4 | 85.1 | 134.3 | 64.5 |
| COc1cc(Nc2ncc(F)c(Nc3ccc4c(n3)N(COP(=O)([O-])[O-])C(=O)C(C)(C)O4)n2)cc(OC)c1OC.[Na+].[Na+] [UNC10302863A] |  |  |  |  |  |  |  |  | 16.5 | 113.6 | 22.9 | 80.8 | 86.8 | 124.3 | 0.00651 | 201.3 |
| COc1ccc(/C=C/C(=O)c2ccc(OC)cc2OC)cc1 [UNC10121790A] |  |  |  |  |  |  |  |  | 72.4 | 107.4 | 104.1 | 66.8 | 97.3 | 138.7 | 199.6 | 97.7 |
| Cc1c(COc2cc(OCc3cccc(C#N)c3)c(CN3C[C@H](O)C[C@@H]3C(=O)O)cc2Cl)cccc1-c1ccc2c(c1)OCCO2 [UNC10302972A] |  |  |  |  |  |  |  |  | 81.0 | 106.7 | 113.8 | 116.0 | 98.5 | 101.3 | 125.1 | 111.9 |
| O=S(=O)(NC1CCNCC1)c1cc(S(=O)(=O)c2ccccc2)ccc1C(F)(F)F [UNC10302840A] | 104.4 | 105.6 | 95.4 | 108.8 | 103.9 | 95.8 | 189.7 | 90.9 |  |  |  |  |  |  |  |  |
